Test results from patent US20130142879A1, “SUSPENSION FORMULATIONS” (INNOVATA BIOMED LIMITED, priority 2008, published 2013).

Tests used:
[1] = Solubility of drugs within HFA 227 with ethanol addition
[2] = Solubility of drugs within HFA 134a with ethanol addition
[3] = Solubility of suspension stabilisers in HFA 134a or HFA 227 with ethanol and additives; format: physicochemical
Method: Trehalose has been determined to be insoluble (observed to be <0.12 μg/50 μl) in HFA 134a or HFA 227 with up to 12% w/w ethanol and only slightly soluble in 30% w/w ethanol (3.3 μg/[…] in HFA 134a, 2.7 μg/50 μl in HFA 227).
Leucine has been determined to be insoluble (observed to be <0.08 μg/50 μl) in HFA 134a or HFA 227 with up to 30% w/w ethanol.

| Solubility within HFA 227 ([1]; EtOH addition 0 % w/w) [μg per 50 μl] | Solubility within HFA 227 ([1]; EtOH addition 1 % w/w) [μg per 50 μl] | Solubility within HFA 227 ([1]; EtOH addition 5 % w/w) [μg per 50 μl] | Compound | Solubility within HFA 134a ([2]; EtOH addition 0 % w/w) [μg per 50 μl] | Solubility within HFA 134a ([2]; EtOH addition 1 % w/w) [μg per 50 μl] | Solubility within HFA 134a ([2]; EtOH addition 5 % w/w) [μg per 50 μl] | further results |
| --- | --- | --- | --- | --- | --- | --- | --- |
| – | – | – | OC[C@H]1O[C@H](O[C@H]2O[C@H](CO)[C@@H](O)[C@H](O)[C@H]2O)[C@H](O)[C@@H](O)[C@@H]1O [Trehalose] | – | – | – | Solubility ([1]; 30% w/w ethanol in HFA 227): 2.7 μg/50 μl |
| 1.66 | 5.61 | 45.16 | CCCC1O[C@@H]2C[C@H]3[C@@H]4CCC5=CC(=O)C=C[C@]5(C)[C@H]4[C@@H](O)C[C@]3(C)[C@]2(C(=O)CO)O1 (some centres unmarked) [Budesonide] | – | – | – | – |
| – | – | – | CC(C)C[C@H](N)C(=O)O [Leucine] | – | – | – | Solubility ([3]; 3% w/w ethanol with 0.5% w/w propylene glycol or 0.01% w/w oleic acid, HFA 134a or HFA 227): < 0.08 μg/50 μl; Solubility ([3]; 12% w/w ethanol with 1.2% w/w water, HFA 134a or HFA 227): < 0.08 μg/50 μl; Solubility ([3]; HFA 134a or HFA 227 with up to 30% w/w ethanol): < 0.08 μg/50 μl |
| 0.00 | 0.00 | 0.07 | C[N+]1(C)[C@@H]2C[C@@H](OC(=O)C(O)(c3cccs3)c3cccs3)C[C@H]1[C@@H]1O[C@@H]12 [Tiotropium Bromide] | 0.00 | 0.01 | 0.33 | – |
| 0.22 | 0.83 | 4.78 | CCC(=O)O[C@]1(C(=O)SCF)[C@H](C)C[C@H]2[C@@H]3C[C@H](F)C4=CC(=O)C=C[C@]4(C)[C@@]3(F)[C@@H](O)C[C@@]21C [Fluticasone Propionate] | – | – | – | Solubility within HFA 227 ([1]; EtOH addition 0.2 % w/w): 0.23 μg per 50 μl |

| Compound | Solubility within HFA 227 ([1]; EtOH addition 0 % w/w) [μg per 50 μl] | Solubility within HFA 227 ([1]; EtOH addition 1 % w/w) [μg per 50 μl] | Solubility within HFA 227 ([1]; EtOH addition 5 % w/w) [μg per 50 μl] | Solubility within HFA 134a ([2]; EtOH addition 0 % w/w) [μg per 50 μl] | Solubility within HFA 134a ([2]; EtOH addition 1 % w/w) [μg per 50 μl] | Solubility within HFA 134a ([2]; EtOH addition 5 % w/w) [μg per 50 μl] | further results |
| --- | --- | --- | --- | --- | --- | --- | --- |
| COc1ccc(CC(C)NCC(O)c2ccc(O)c(NC=O)c2)cc1 (centres unmarked) [Formoterol] | 0.00 | 0.02 | 0.23 | 0.00 | 0.03 | 0.73 | – |
